Reference: ChEMBL document CHEMBL1155971, “Discovery of a novel class of isoxazoline voltage gated sodium channel blockers” (Bioorg Med Chem Lett, 2009)

What was measured:
[1] = target: T1, Sodium channel protein type 9 subunit alpha (Homo sapiens, UniProt Q15858); assay: Inhibition of human Nav1.7 channel expressed in HEK cells by FRET assay; assay type: cell-based, HEK293
Target sequence in this assay (Q15858 whole entry): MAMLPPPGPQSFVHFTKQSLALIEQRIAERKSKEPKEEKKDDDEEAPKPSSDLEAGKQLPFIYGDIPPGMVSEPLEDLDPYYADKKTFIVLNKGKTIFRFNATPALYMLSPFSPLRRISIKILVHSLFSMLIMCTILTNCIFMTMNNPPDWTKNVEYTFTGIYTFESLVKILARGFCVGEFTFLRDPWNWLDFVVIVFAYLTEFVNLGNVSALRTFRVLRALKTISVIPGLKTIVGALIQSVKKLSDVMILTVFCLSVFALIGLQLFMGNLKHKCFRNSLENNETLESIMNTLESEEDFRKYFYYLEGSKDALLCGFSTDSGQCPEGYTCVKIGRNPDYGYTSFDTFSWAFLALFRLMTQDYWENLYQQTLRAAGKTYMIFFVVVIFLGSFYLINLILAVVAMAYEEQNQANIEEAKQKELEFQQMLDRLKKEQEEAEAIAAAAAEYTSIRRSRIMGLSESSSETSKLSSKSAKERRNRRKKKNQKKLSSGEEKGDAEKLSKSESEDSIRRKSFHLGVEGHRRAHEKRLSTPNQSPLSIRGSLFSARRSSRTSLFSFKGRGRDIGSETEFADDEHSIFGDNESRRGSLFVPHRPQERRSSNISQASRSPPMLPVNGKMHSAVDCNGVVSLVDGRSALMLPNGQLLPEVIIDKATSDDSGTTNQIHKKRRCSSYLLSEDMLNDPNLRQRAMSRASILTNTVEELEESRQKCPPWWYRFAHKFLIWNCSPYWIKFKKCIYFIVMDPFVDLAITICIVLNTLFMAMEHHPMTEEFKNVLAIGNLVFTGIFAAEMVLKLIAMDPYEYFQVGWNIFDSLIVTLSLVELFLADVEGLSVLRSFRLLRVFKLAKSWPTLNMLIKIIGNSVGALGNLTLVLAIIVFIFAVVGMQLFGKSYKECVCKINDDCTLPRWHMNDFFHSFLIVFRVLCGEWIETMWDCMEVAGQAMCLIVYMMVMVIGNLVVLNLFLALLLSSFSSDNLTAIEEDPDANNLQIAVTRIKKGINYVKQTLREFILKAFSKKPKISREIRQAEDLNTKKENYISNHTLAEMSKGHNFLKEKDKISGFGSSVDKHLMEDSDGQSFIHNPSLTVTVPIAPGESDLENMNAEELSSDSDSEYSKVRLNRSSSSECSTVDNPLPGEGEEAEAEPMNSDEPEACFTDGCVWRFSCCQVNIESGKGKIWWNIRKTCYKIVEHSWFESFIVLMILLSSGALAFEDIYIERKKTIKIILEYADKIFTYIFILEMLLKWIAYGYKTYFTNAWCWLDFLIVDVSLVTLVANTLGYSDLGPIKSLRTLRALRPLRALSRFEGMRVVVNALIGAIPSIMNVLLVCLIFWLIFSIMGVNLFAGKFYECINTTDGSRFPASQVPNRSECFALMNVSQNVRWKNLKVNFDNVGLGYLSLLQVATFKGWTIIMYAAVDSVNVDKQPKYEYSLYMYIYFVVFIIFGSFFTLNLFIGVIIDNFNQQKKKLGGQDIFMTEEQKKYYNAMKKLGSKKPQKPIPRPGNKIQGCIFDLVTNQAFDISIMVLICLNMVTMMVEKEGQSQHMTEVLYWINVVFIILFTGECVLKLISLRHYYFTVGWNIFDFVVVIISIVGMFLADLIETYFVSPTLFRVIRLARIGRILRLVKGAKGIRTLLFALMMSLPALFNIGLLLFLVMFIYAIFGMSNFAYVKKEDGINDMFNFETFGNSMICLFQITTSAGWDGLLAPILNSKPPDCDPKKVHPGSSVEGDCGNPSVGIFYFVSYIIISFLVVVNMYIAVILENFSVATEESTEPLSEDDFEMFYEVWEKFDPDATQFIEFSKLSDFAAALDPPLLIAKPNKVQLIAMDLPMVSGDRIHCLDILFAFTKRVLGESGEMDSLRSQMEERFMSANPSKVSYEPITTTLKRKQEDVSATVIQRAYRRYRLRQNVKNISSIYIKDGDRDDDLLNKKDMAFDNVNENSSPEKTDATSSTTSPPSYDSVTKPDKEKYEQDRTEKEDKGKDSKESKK

[2] = target: T1, Sodium channel protein type 9 subunit alpha; assay: Inhibition of human Nav1.7 channel expressed in HEK cells at 1 uM by FRET assay; assay type: cell-based; settings: HEK293
Target sequence in this assay (Q15858 whole entry, looked up): as the sequence (Q15858 whole entry) above

[3] = Bioavailability in Sprague-Dawley rat; assay type: ADME, organism-based; settings: in vivo
[4] = Half life in Sprague-Dawley rat; assay type: ADME, organism-based; settings: in vivo
[5] = Plasma clearance in Sprague-Dawley rat; assay type: ADME, organism-based
Rattus norvegicus [6] = assay: Analgesic activity in Freund's complete adjuvant-induced rat pain model assessed as reversal of mechanic allodynia at 3 mg/kg, po after 2 hrs; assay type: functional
Rattus norvegicus [7] = assay: Analgesic activity in Freund's complete adjuvant-induced rat pain model assessed as reversal of mechanic allodynia at 3 mg/kg, po after 3 hrs; assay type: functional
Rattus norvegicus [8] = assay: Analgesic activity in spinal nerve ligation-induced rat neuropathic pain model assessed as reversal of allodynia at 10 mg/kg, po after 3 hrs; assay type: functional
Rattus norvegicus [9] = assay: Analgesic activity in Freund's complete adjuvant-induced rat pain model assessed as reversal of mechanic allodynia at 10 mg/kg, po after 3 hrs; assay type: functional

## O=C(NCc1ccc(OC(F)(F)F)cc1)[C@@H]1CCC[C@H]1C1=NOC(c2ccc(OC(F)(F)F)cc2)C1 (mixture of isomers)
[1]
  IC50: 500 nM
[2]
  inhibition: 93%

## c1ccc(-c2cc([C@@H]3CCC[C@H]3C3=NOC(c4ccccc4)C3)no2)cc1 (mixture of isomers)
[2]
  inhibition: 13%

## CC1(c2ccccc2)CC([C@@H]2CCC[C@H]2C(=O)NCc2ccc(OC(F)(F)F)cc2)=NO1 (relative stereo) [listing 1 of 2 here]
[2]
  inhibition: 35%

## CS(=O)(=O)c1ccc(C2CC([C@@H]3CCC[C@H]3C(=O)NCc3ccc(OC(F)(F)F)cc3)=NO2)cc1 (mixture of isomers)
[2]
  inhibition: 26%

## O=C(O)c1ccc(C2CC([C@@H]3CCC[C@H]3C(=O)NCc3ccc(OC(F)(F)F)cc3)=NO2)cc1 (mixture of isomers)
[2]
  inhibition: 0%

## CC1(c2ccccc2)CC([C@@H]2CCC[C@H]2C(=O)NCc2ccccc2)=NO1 (mixture of isomers)
[2]
  inhibition: 19%

## CC1(c2ccccc2)CC([C@@H]2CCC[C@H]2C(=O)NCc2ccc(Cl)cc2)=NO1 (mixture of isomers)
[2]
  inhibition: 15%

## CC(C)(C)Oc1ccc(CNC(=O)[C@@H]2CCC[C@H]2C2=NOC(C)(c3ccccc3)C2)cc1 (mixture of isomers)
[2]
  inhibition: 26%

## O=C(NCc1ccc(OC(F)(F)F)cc1)[C@@H]1CCC[C@H]1C1=NC(c2ccc(Cl)cc2)CO1 (mixture of isomers)
[1]
  IC50: 970 nM
[2]
  inhibition: 56%

## O=C(NCc1ccc(OC(F)(F)F)cc1)[C@@H]1CCC[C@H]1C1=NOC(c2ccccn2)C1 (mixture of isomers)
[2]
  inhibition: 0%

## FC(F)(F)Oc1ccc(C2CC([C@@H]3CCC[C@H]3c3cc(-c4ccccc4)on3)=NO2)cc1 (mixture of isomers)
[2]
  inhibition: 18%

## CC1(c2ccccc2)CC([C@@H]2CCC[C@H]2C(=O)NCc2ccc(-c3ccccc3S(C)(=O)=O)cc2)=NO1 (mixture of isomers)
[2]
  inhibition: 0%

## CC1(c2ccccc2)CC([C@@H]2CCC[C@H]2C(=O)NCc2ccc(OC(F)(F)F)cc2)=NO1 (mixture of isomers) [listing 1 of 2 here]
[2]
  inhibition: 63%

## CC1(c2ccccc2)CC([C@@H]2CCC[C@H]2C(=O)NCc2ccc(OC(F)(F)F)cc2)=NO1 (mixture of isomers) [listing 2 of 2 here]
[1]
  IC50: 620 nM
[3]
  bioavailability: 16%
[4]
  half-life: 2.9 h
[5]
  clearance: 17.8 mL/min/kg
Rattus norvegicus [6]
  Activity: 20%
Rattus norvegicus [7]; 3 mg/kg
  Activity: 48%

## CC1(c2ccccc2)CC([C@@H]2CCC[C@H]2C(=O)NCc2ccc(OC(F)(F)F)cc2)=NO1 (single isomer, unassigned; diastereomer c) [listing 1 of 2 here]
[1]
  IC50: 1200 nM
Rattus norvegicus [7]; 3 mg/kg
  Activity: 20%

## O=C(NCc1ccc(OC(F)(F)F)cc1)[C@@H]1CCC[C@H]1c1cc(-c2ccccc2)on1 (racemic)
[2]
  inhibition: 38%

## CN(Cc1ccc(-c2ccccc2S(C)(=O)=O)cc1)C(=O)[C@@H]1CCC[C@H]1C1=NOC(C)(c2ccccc2)C1 (mixture of isomers)
[2]
  inhibition: 0%

## COC(=O)c1cccc(C2CC([C@@H]3CCC[C@H]3C(=O)NCc3ccc(OC(F)(F)F)cc3)=NO2)c1 (mixture of isomers)
[1]
  IC50: 710 nM
[2]
  inhibition: 75%

## O=C(NCc1ccc(OC(F)(F)F)cc1)[C@@H]1CCC[C@H]1C1=NOC(c2ccc(Cl)cc2)C1 (mixture of isomers)
[1]
  IC50: 430 nM
[2]
  inhibition: 92%

## CC1(c2ccccc2)CC([C@@H]2CCC[C@H]2C(=O)NCc2ccc(OC(F)(F)F)cc2S(C)(=O)=O)=NO1 (mixture of isomers)
[2]
  inhibition: 13%

## CC1(c2ccccc2)CC([C@@H]2CCC[C@H]2C(=O)Nc2ccc(OC(F)(F)F)cc2)=NO1 (mixture of isomers)
[2]
  inhibition: 30%

## CC1(c2ccccc2)CC([C@@H]2CCC[C@H]2C(=O)NCc2ccc(OC(F)(F)F)cc2)=NO1 (relative stereo) [listing 2 of 2 here]
Rattus norvegicus [7]; 3 mg/kg
  Activity: 31%

## CNC(=O)c1ccc(C2CC([C@@H]3CCC[C@H]3C(=O)NCc3ccc(OC(F)(F)F)cc3)=NO2)cc1 (mixture of isomers)
[2]
  inhibition: 14%

## O=C(NCc1ccc(OC(F)(F)F)cc1)[C@@H]1CCC[C@H]1C1=NOC(c2cccc(Cl)c2)C1 (mixture of isomers)
[1]
  IC50: 480 nM
[2]
  inhibition: 90%

## CC1(c2ccccc2)CC([C@@H]2CCC[C@H]2C(=O)NCc2ccc(OC(F)(F)F)cc2)=NO1 (single isomer, unassigned; diastereomer b) [listing 1 of 2 here]
[2]
  inhibition: 37%

## Clc1cc(Cl)cc(C2CC([C@@H]3CCC[C@H]3c3cc(-c4ccccc4)on3)=NO2)c1 (mixture of isomers)
[2]
  inhibition: 35%

## COc1ccc(CNC(=O)[C@@H]2CCC[C@H]2C2=NOC(C)(c3ccccc3)C2)cc1 (relative stereo)
[2]
  inhibition: 16%

## O=C(NCc1ccc(OC(F)(F)F)cc1)[C@@H]1CCC[C@H]1c1nc(-c2ccccc2)co1 (racemic)
[2]
  inhibition: 19%

## COC(=O)c1ccc(C2CC([C@@H]3CCC[C@H]3C(=O)NCc3ccc(OC(F)(F)F)cc3)=NO2)cc1 (mixture of isomers)
[1]
  IC50: 340 nM
[2]
  inhibition: 87%

## O=C(NCc1ccc(OC(F)(F)F)cc1)[C@@H]1CCC[C@H]1C1=NOC(c2ccccc2)C1 (mixture of isomers)
[1]
  IC50: 780 nM
[2]
  inhibition: 76%

## CC1(c2ccccc2)CC([C@@H]2CCC[C@H]2C(=O)NCc2ccc(OC(F)(F)F)cc2)=NO1 (single isomer, unassigned; diastereomer b) [listing 2 of 2 here]
Rattus norvegicus [7]; 3 mg/kg
  Activity: 26%

## NC(=O)c1ccc(C2CC([C@@H]3CCC[C@H]3C(=O)NCc3ccc(OC(F)(F)F)cc3)=NO2)cc1 (mixture of isomers)
[2]
  inhibition: 0%

## O=C(NCc1ccc(OC(F)(F)F)cc1)[C@@H]1CCC[C@H]1c1ncc(-c2ccccc2)o1 (racemic)
[2]
  inhibition: 0%

## CC1(c2ccccc2)CC([C@@H]2CCC[C@H]2C(=O)NCc2ccc(OC(F)(F)F)cc2)=NO1 (single isomer, unassigned; diastereomer a) [listing 1 of 2 here]
[1]
  IC50: 960 nM
Rattus norvegicus [7]; 3 mg/kg
  Activity: 53%
Rattus norvegicus [8]
  Activity: 21%

## CC1(c2ccccc2)CC([C@@H]2CCC[C@H]2C(=O)NCc2ccc(OC(F)(F)F)cc2)=NO1 (single isomer, unassigned; diastereomer c) [listing 2 of 2 here]
[2]
  inhibition: 48%

## O=C(NCc1ccc(OC(F)(F)F)cc1)[C@@H]1CCC[C@H]1C1=NOC(CO)(c2ccccc2)C1 (mixture of isomers)
[2]
  inhibition: 23%

## CS(=O)(=O)c1ccc(C2CC([C@@H]3CCC[C@H]3c3cc(-c4ccccc4)on3)=NO2)cc1 (mixture of isomers)
[2]
  inhibition: 43%

## CC(C)Oc1ccc(CNC(=O)[C@@H]2CCC[C@H]2C2=NOC(C)(c3ccccc3)C2)cc1 (mixture of isomers)
[1]
  IC50: 1500 nM

## CC1(c2ccccc2)CC([C@@H]2CCC[C@H]2C(=O)NCc2ccc(OC(F)(F)F)cc2)=NO1 (single isomer, unassigned; diastereomer a) [listing 2 of 2 here]
[2]
  inhibition: 64%

## O=C(NCc1ccc(OC(F)(F)F)cc1)[C@@H]1CCC[C@H]1C1=NCC(c2ccccc2)O1 (mixture of isomers)
[1]
  IC50: 620 nM
[2]
  inhibition: 71%

## CN(Cc1ccc(-c2ccccc2S(N)(=O)=O)cc1)C(=O)[C@@H]1CCC[C@H]1C(=O)NCc1ccc(OC(F)(F)F)cc1 (relative stereo)
[1]
  IC50: 830 nM
Rattus norvegicus [7]
  Activity: 31%
Rattus norvegicus [9]
  Activity: 54%
Rattus norvegicus [8]
  Activity: 35%

## O=C(NCc1ccc(OC(F)(F)F)cc1)[C@@H]1CCC[C@H]1c1cc(-c2ccc(Cl)cc2)on1 (racemic)
[2]
  inhibition: 33%

## CC1(c2ccccc2)CC([C@@H]2CCC[C@H]2C(=O)NCc2ccc(C(F)(F)F)cc2)=NO1 (mixture of isomers)
[1]
  IC50: 2500 nM

## CC1(c2ccccc2)CC([C@@H]2CCC[C@H]2C(=O)Nc2ccc3ncccc3c2)=NO1 (mixture of isomers)
[2]
  inhibition: 17%
